Data published in PMC10290117, “Molecular mechanism of phosphopeptide neoantigen immunogenicity” (Nature Communications, 2023).

Tested on: TCR27-AKD10R3 cells
Test: X-scan (peptide scan), EGFP reporter effector cells
Assay type: cell-based, murine
Conditions: Fig. 1c source data, HLA B*07, T2 cells pulsed with 25 μg peptide per 1 × 10^6 cells, 2 h, 37 °C, effector cells 2:1 overnight, mean value of triplicate
Method: Tap-deficient T2 (174x CEM.T2) HLA-B*0702+ cells were received from Dr. Victor Engelhard. These and the commercially purchased Tap-deficient T2 (174 x CEM.T2) cells (ATCC CRL 1991) were maintained in RPMI 1640 (BioConcept) supplemented with 10% fetal calf serum (FCS, HyClone), 2mM L-glutamine and 1% Penicillin/Streptomycin at 37 °C and 5% CO2. The EGFP reporter cell line was based on a murine TCR negative thymoma cell line derived from strain BW5417 (ATCC®TIB-47TM) and was stably transduced with (a) TCR27 in which the human constant regions were replaced with those of mouse, (b) a chimeric mouse/human CD8, and (c) an EGFP reporter construct linked to a minimal IL-2 promoter comprising three NFAT-binding sites (3xNFAT)[44]. The transduced cells were termed TCR27-AKD10R3 cells and will be called the effector cells. Mouse cell lines were cultured in SF-IMDM (BioConcept) supplemented with 3% FCS, 1% Penicillin/Streptomycin, and 50 μM beta-mercaptoethanol at 37 °C and 10% CO2.
Peptides were dissolved in dimethyl sulfoxide (DMSO) at concentrations of 2–20 mg/mL, aliquoted and stored at −80 °C. Peptide-pulsing experiments were performed by pre-incubating T2 cells with 25 μg peptide per 1 × 10^6 cells in PBS for 2 h at 37 °C and 5% CO2, washed three times to remove unbound peptides and used for further downstream analysis. Peptide-pulsed T2 cells were incubated with effector cells in a 2:1 ratio overnight in SF-IMDM at 37 °C and 10% CO2, washed twice and stained with anti-mouse TCR-® chain clone H57-597 (BD Pharmingen #560656, 1:500) for 30 min at RT. Cells were washed twice before FACS-analysis using a BD FACS Canto II with System software v2.0. Data analysis was performed using FlowJo V10 Software. Binding affinity between each peptide and HLA-B*0702 was determined using an Alpha assay. It is a homogenous, proximity-based assay for detection of peptides binding to HLA class I molecules using a conformation-dependent anti-HLA class I antibody, W6/32, as one tag and a biotinylated recombinant HLA class I molecule as the other tag, and a proximity-based signal was generated through the luminescent oxygen channeling immunoassay technology (PerkinElmer) as described.
To identify the off-target peptides we have utilized an approach that was developed previously. In brief, we investigated which amino acids at each position in pMLL747–755 enable TCR interaction by sequentially replacing every amino acid position outside of the anchor positions 2 and 9 with all 19 alternative amino acids, resulting in 134 peptides (133 altered peptides plus original epitope). Each peptide was individually evaluated using cell-based in vitro cytotoxicity assay. To represent the TCR recognition kernel, we have defined Position Weight Matrices (PWMs) for each assay by assigning normalized measurements to each of the 20 amino acids in each position. To predict potential off-target peptides, we applied an algorithm projecting the PWM-defined kernel into the human proteome, scoring TCR27 recognition for the predicted HLA-B^*0702 binding 9-mer peptides. Of the 11 peptides with highest predicted cross-reactivity scores, we confirmed that only 2, […] and pDOT1L998–1006, strongly activated the TCR27-expressing effector T cells.

| Substance | Percentage GFP positive from TCR+ cells |
| --- | --- |
| APRsPSHSM [single-residue substitution of pMLL747–755, Pos 1] | 1.5% |
| CPRsPSHSM [single-residue substitution of pMLL747–755, Pos 1] | 1.3% |
| DPRsPSHSM [single-residue substitution of pMLL747–755, Pos 1] | 1.14% |
| EPAsPSHSM [single-residue substitution of pMLL747–755, Pos 3] | 14.3% |
| EPCsPSHSM [single-residue substitution of pMLL747–755, Pos 3] | 9.53% |
| EPDsPSHSM [single-residue substitution of pMLL747–755, Pos 3] | 1.12% |
| EPEsPSHSM [single-residue substitution of pMLL747–755, Pos 3] | 2.7% |
| EPFsPSHSM [single-residue substitution of pMLL747–755, Pos 3] | 1.13% |
| EPGsPSHSM [single-residue substitution of pMLL747–755, Pos 3] | 1.47% |
| EPHsPSHSM [single-residue substitution of pMLL747–755, Pos 3] | 5.91% |
| EPIsPSHSM [single-residue substitution of pMLL747–755, Pos 3] | 1.83% |
| EPKsPSHSM [single-residue substitution of pMLL747–755, Pos 3] | 10.3% |
| EPLsPSHSM [single-residue substitution of pMLL747–755, Pos 3] | 1.35% |
| EPMsPSHSM [single-residue substitution of pMLL747–755, Pos 3] | 1.48% |
| EPNsPSHSM [single-residue substitution of pMLL747–755, Pos 3] | 5% |
| EPPsPSHSM [single-residue substitution of pMLL747–755, Pos 3] | 1% |
| EPQsPSHSM [single-residue substitution of pMLL747–755, Pos 3] | 1.31% |
| EPRAPSHSM [single-residue substitution of pMLL747–755, Pos 4] | 0.88% |
| EPRCPSHSM [pMLL747–755 with cysteine at Pos 4] | 1.02% |
| EPRDPSHSM [pMLL747–755 with aspartate at P4] | 0.92% |

| Substance | Percentage GFP positive from TCR+ cells |
| --- | --- |
| EPREPSHSM [pMLL747–755 with glutamate at P4] | 0.77% |
| EPRFPSHSM [single-residue substitution of pMLL747–755, Pos 4] | 0.91% |
| EPRGPSHSM [single-residue substitution of pMLL747–755, Pos 4] | 1.01% |
| EPRHPSHSM [single-residue substitution of pMLL747–755, Pos 4] | 0.9% |
| EPRIPSHSM [single-residue substitution of pMLL747–755, Pos 4] | 0.86% |
| EPRKPSHSM [single-residue substitution of pMLL747–755, Pos 4] | 1.03% |
| EPRLPSHSM [single-residue substitution of pMLL747–755, Pos 4] | 1.21% |
| EPRMPSHSM [single-residue substitution of pMLL747–755, Pos 4] | 1.25% |
| EPRNPSHSM [single-residue substitution of pMLL747–755, Pos 4] | 1.07% |
| EPRPPSHSM [single-residue substitution of pMLL747–755, Pos 4] | 1.21% |
| EPRQPSHSM [single-residue substitution of pMLL747–755, Pos 4] | 1.08% |
| EPRRPSHSM [single-residue substitution of pMLL747–755, Pos 4] | 0.98% |
| EPRTPSHSM [single-residue substitution of pMLL747–755, Pos 4] | 0.8% |
| EPRVPSHSM [single-residue substitution of pMLL747–755, Pos 4] | 0.76% |
| EPRWPSHSM [single-residue substitution of pMLL747–755, Pos 4] | 0.96% |
| EPRYPSHSM [single-residue substitution of pMLL747–755, Pos 4] | 0.87% |
| EPRsASHSM [single-residue substitution of pMLL747–755, Pos 5] | 0.92% |
| EPRsCSHSM [single-residue substitution of pMLL747–755, Pos 5] | 0.98% |
| EPRsDSHSM [single-residue substitution of pMLL747–755, Pos 5] | 0.95% |
| EPRsESHSM [single-residue substitution of pMLL747–755, Pos 5] | 0.97% |

| Substance | Percentage GFP positive from TCR+ cells |
| --- | --- |
| EPRsFSHSM [single-residue substitution of pMLL747–755, Pos 5] | 0.91% |
| EPRsGSHSM [single-residue substitution of pMLL747–755, Pos 5] | 0.96% |
| EPRsHSHSM [single-residue substitution of pMLL747–755, Pos 5] | 0.93% |
| EPRsISHSM [single-residue substitution of pMLL747–755, Pos 5] | 0.81% |
| EPRsKSHSM [single-residue substitution of pMLL747–755, Pos 5] | 0.9% |
| EPRsLSHSM [single-residue substitution of pMLL747–755, Pos 5] | 0.88% |
| EPRsMSHSM [single-residue substitution of pMLL747–755, Pos 5] | 0.97% |
| EPRsNSHSM [single-residue substitution of pMLL747–755, Pos 5] | 0.84% |
| EPRsPAHSM [single-residue substitution of pMLL747–755, Pos 6] | 1.34% |
| EPRsPCHSM [single-residue substitution of pMLL747–755, Pos 6] | 8.54% |
| EPRsPDHSM [single-residue substitution of pMLL747–755, Pos 6] | 1.07% |
| EPRsPEHSM [single-residue substitution of pMLL747–755, Pos 6] | 4.34% |
| EPRsPFHSM [single-residue substitution of pMLL747–755, Pos 6] | 0.82% |
| EPRsPGHSM [single-residue substitution of pMLL747–755, Pos 6] | 1.34% |
| EPRsPHHSM [single-residue substitution of pMLL747–755, Pos 6] | 2.09% |
| EPRsPIHSM [single-residue substitution of pMLL747–755, Pos 6] | 0.85% |
| EPRsPKHSM [single-residue substitution of pMLL747–755, Pos 6] | 0.87% |
| EPRsPLHSM [single-residue substitution of pMLL747–755, Pos 6] | 0.96% |
| EPRsPMHSM [single-residue substitution of pMLL747–755, Pos 6] | 0.73% |
| EPRsPNHSM [single-residue substitution of pMLL747–755, Pos 6] | 12.1% |
